The source of these data is patent publication US8580321B2, “Method for reducing the effects of chemotherapy using flagellin related polypeptides” (priority 2003, dated 2013).

In data set [1] the test system is C57B1/6J mice treated with gamma radiation. The settings on record: Komarov et al 1999; cited from earlier work.
For data set [2] the test system is unchanged. Briefly: Radioprotection of mice by p53 inhibitor PFTα. Type of data set: in vivo, mouse. The following applies: I.P. 10 mg/kg.
Data set [3] concerns lethally irradiated mice. The following applies: cited from earlier work.
The conditions of data set [4]: in vivo; cited from earlier work.
Data set [5] relates to NIH Swiss mice treated with cisplatinum. The settings on record: 10 mg/kg, after two weeks, n=11.
Data set [6] has the same test system. The following applies: i.p.; cited from earlier work.
Data set [7] concerns NF-κB. Briefly: NF-κB-regulated luciferase reporter assay in H116 human colon cancer cells. Type of data set: cell-based. From the text:
While translocation of NF-κB to the nucleus is a crucial step in induction of NF-κB-regulated inhibitors of apoptosis, it is not sufficient in itself. To directly test the ability of selected fragments to induce expression of NF-κB-regulated genes, we performed reporter assay experiments. Flagellin and the AA′, BB′, A′ and B′ fragments were used for treatment of H116 human colon cancer cells carrying luciferase gene under a NF-κB-responsive promoter. The reporter construct contained three NF-κB-binding sites from the E-selectin promoter combined with a Hsp70 minimal promoter that is routinely used for the detection of NF-κB status of cells. Luciferase activity was measured in cell lysates six hours after addition of flagellin or its truncated fragments into the medium. TNF was used as positive control.
In order to study the ability of the AA′ fragments to directly activate NF-κB-regulated transcription, we performed reporter assay experiments as described above for a wide range of concentrations of flagellin, original AA′ and AA′-derived fragments.

The test system of data set [8] is NF-κB. The experiment in a line: EMSA of NF-κB binding activity in HT29 human colon cancer cells. In kind it is cell-based. The settings on record: fragments 1 mg/ml, 15 min. As for the experimental part: We further minimized the AA′ flagellin fragment by producing additional fragments through stepwise removal of peptide fragments from its N-terminal half (Table 2). […] NF-κB binding activity in HT29 cells was stimulated with TNFa (10 ng/ml), or flagellin fragments (1 mg/ml) for 15 min.
For orientation: A gel shift assay detects complexes by their altered migration in electrophoresis.

For data set [9], the system named is NF-κB. Briefly: EMSA of NF-κB translocation / DNA binding in A549 cells. The following applies: A549 cells, 1 μg/ml, 45 min, EMSA of whole cell extracts.

Where two headings read alike, the source gives them in different places.

As for `Cc1ccc(C(=O)Cn2c3c(sc2=N)CCCC3)cc1` [PFTα, pifithrin-alpha], the “lethality of wild type animals receiving 6-11 Gy” value in [1] was “could be reduced”. In addition, in data set [2], the “protection from single 9 Gy and fractioned cumulative 12.5 Gy (5×2.5 Gy)” value is “protects”; the “survival after single 12.5 and 25 Gy doses of IR” value is “no effect on survival”.

In the case of `C[C@]12CC[C@H]3[C@@H](CC=C4C[C@@H](O)CC[C@@]43C)[C@@H]1CC[C@@H]2O` [5-AED, 5-androstenediol, reference compound], the DMF in [3] (subcutaneous injection in mice 24 h before irradiation) was 1.26.

Consider “SCF: stem cell factor (SCF, c-kit ligand), hematopoietic cytokine and radioprotectant”, for which, in data set [3] (lethally irradiated mice), the DMF is on record as 1.3-1.35.

With `N.N.[Cl][Pt][Cl]` [cisplatinum], in [4], the beta deterioration is 60 min. In [5], the “mean loss in body weight, cisplatinum alone” value is on record as ~30%. For the same molecule, in [6], the “maximum tolerable dose [MTD]” value is recorded as 10 mg/kg.

Regarding “AA′n1-170: (1-170)-Linker-(402-505), SEQ ID NO: 30”, the “level of NF-κB-regulated transcription relative to flagellin” value in data set [7] (reporter assay, over the studied range of concentrations) was “comparable to such of flagellin”. Further, in data set [7] (very low concentration range), the “NF-κB reporter activity relative to flagellin” value is listed as “more active than flagellin”. Further, in data set [8], the “induction of NF-κB translocation” value was “induce NF-κB translocation” and the “level of NF-κB translocation relative to flagellin” value was “comparable to that of flagellin”. Also, in [9], the “NF-κB Stimulation” value is on record as “Yes”.

B1: Flt-3 ligand: cytokine conferring radioprotection (protein, UniProt P49771 27-235, looked up)
Fms-related tyrosine kinase 3 …: TQDCSFQHSPISSDFAVKIRELSDYLLQDYPVTVASNLQDEELCGGLWRLVLAQRWMERLKTVAGSKMQGLLERVNTEIHFVTKCAFQPPPSCLRFVQTNISRLLQETSEQLVALKPWITRQNFSRCLELQCQPDSSTLPPPWSPRPLEATAPTAPQPPLLLLLLLPVGLLLLAAAWCLHWQRTRRRTPRPGEQVPPVPSPQDLLLVEH
In the case of B1, the DMF in data set [3] (lethally irradiated mice) is on record as > 1.2. Besides, the “30-day survival at LD100/30” value in [3] (mice) is given as 70-80%.
